Here are results for 38 molecules from patent publication US10874743B2, “IRAK degraders and uses thereof” (Kymera Therapeutics, Inc., priority 2017, dated 2020).

The test system of one test is OCI-LY10 cells. The test can be described thus: OCI-LY-10 CTG cell viability assay (EC50). In kind it is cell-based. Conditions: Homo sapiens, 96 h, CellTiter-Glo cell viability, 4 days incubation, top concentration 10 μM, read-out: OCI-LY10 IRAK4 EC50. The procedure:
A CTG cell viability assay using OCI-LY-10 cells was run to determine compound-mediated cell viability (EC50).
Compound-mediated viability effect on OCI-LY10 was quantitatively determined using the CellTiter-Glo® Luminescent Cell Viability Assay kit from Promega (Catalog number G7570) following manufacturer's recommended procedures. […] Compounds were then added to the assay plate with final top concentration of 10 μM and 1:3 dilution series with total of 9 doses. The final DMSO concentration was normalized to 0.2%. The assay plates were incubated at 37° C. for 4 days under 5% CO2. Then the assay plate was equilibrated at room temperature for 10 minutes. […] The data was then analyzed by software Prism 7.0 from GraphPad and the dose response curves were fit using a three-parameter logistic equation to calculate EC50.
A general note: Cellular ATP, detected with luciferase, serves as a proxy for viable cell number.
In the case of `Cn1c(=O)n([C@H]2CCC(=O)NC2=O)c2ccc(CCCCOCCCCNCc3ccc(-n4cc(NC(=O)c5coc(-c6ccnc(NCC7CC7)c6)n5)c(C(F)F)n4)cc3)cc21` (single isomer, unassigned) [I-699], the EC50 is under 0.05 µM.
Same read-out and setting: the value for `Cn1cc(NC(=O)c2cnn3ccc(N4CCN(C(=O)COCCOCCOCCOCCCc5cccc6c5n(C)c(=O)n6C5CCC(=O)NC5=O)CC4)nc23)c(C(F)F)n1` (stereo not drawn) [I-465] was over 1 µM; that for `Cn1cc(NC(=O)c2cnn3ccc(N4CCN(C(=O)COCCOCCOCCOCCCc5ccc6c(c5)n(C)c(=O)n6C5CCC(=O)NC5=O)CC4)nc23)c(C(F)F)n1` (stereo not drawn) [I-466] was over 1 µM; that for `Cn1cc(NC(=O)c2cnn3ccc(N4CCN(C(=O)COCCOCCOCCOCCNc5cccc6c5C(=O)N(C5CCC(=O)NC5=O)C6=O)CC4)nc23)c(C(F)F)n1` (stereo not drawn) [I-467] was over 1 µM.
The same measure, in the same setting: the value for `Cn1cc(NC(=O)c2cnn3ccc(N4CCN(C(=O)COCCOCCOCCNc5cccc6c5C(=O)N(C5CCC(=O)NC5=O)C6=O)CC4)nc23)c(C(F)F)n1` (stereo not drawn) [I-468] was over 1 µM; that for `Cn1cc(NC(=O)c2cnn3ccc(N4CCN(C(=O)COCCOCCCc5ccc6c(c5)n(C)c(=O)n6C5CCC(=O)NC5=O)CC4)nc23)c(C(F)F)n1` (stereo not drawn) [I-469] was over 1 µM; that for `Cn1cc(NC(=O)c2cnn3ccc(N4CCNCC4)nc23)c(C(=O)NCCOCCOCCOCCNc2cccc3c2C(=O)N(C2CCC(=O)NC2=O)C3=O)n1` (stereo not drawn) [I-471] was over 1 µM.
On to `CN1CCN(C(=O)c2nn(-c3ccc(C(=O)NCCCCOCCCCc4ccc5c(c4)n(C)c(=O)n5C4CCC(=O)NC4=O)cc3)cc2NC(=O)c2coc(-c3ccnc(NCC(F)(F)F)c3)n2)CC1` (stereo not drawn) [I-481], for which the EC50 fell in the range of 0.05 to 0.1 µM.
The same measure, in the same setting: to `CN(C)CCNC(=O)c1nn(-c2ccc(C(=O)NCCCCOCCCCc3ccc4c(c3)n(C)c(=O)n4C3CCC(=O)NC3=O)cc2)cc1NC(=O)c1coc(-c2ccnc(NCC(F)(F)F)c2)n1` (stereo not drawn) [I-482] belongs 0.1 to 0.5 µM.
The same measure, in the same setting: the value for `Cc1ncsc1-c1ccc(CNC(=O)[C@@H]2C[C@@H](O)CN2C(=O)[C@@H](NC(=O)CCCCCCCCCCC(=O)N2CCN(c3ccn4ncc(C(=O)Nc5cn(C)nc5C(F)F)c4n3)CC2)C(C)(C)C)cc1` [I-483] was over 1 µM.
For the molecule `Cc1ncsc1-c1ccc(CNC(=O)[C@@H]2C[C@@H](O)CN2C(=O)[C@@H](NC(=O)COCCOCCOCCOCCOCC(=O)N2CCN(c3ccn4ncc(C(=O)Nc5cn(C)nc5C(F)F)c4n3)CC2)C(C)(C)C)cc1` [I-484], the EC50 was over 1 µM.
Same read-out and setting: the value for `Cc1ncsc1-c1ccc(CNC(=O)[C@@H]2C[C@@H](O)CN2C(=O)[C@@H](NC(=O)COCCOCCOCC(=O)N2CCN(c3ccn4ncc(C(=O)Nc5cn(C)nc5C(F)F)c4n3)CC2)C(C)(C)C)cc1` [I-485] was over 1 µM.
Regarding `CN(CCCOCCCc1ccc2c(c1)n(C)c(=O)n2C1CCC(=O)NC1=O)C(=O)c1ccc(-n2cc(NC(=O)c3coc(-c4ccnc(NCC(F)(F)F)c4)n3)c(C(N)=O)n2)cc1` (stereo not drawn) [I-494], the EC50 is over 1 µM.
In the case of `CN1C(=O)CCC(n2c(=O)n(C)c3c(CCCOCCOCCNC(=O)c4ccc(-n5cc(NC(=O)c6coc(-c7ccnc(NCC8CC8)c7)n6)c(C(F)F)n5)cc4)cccc32)C1=O` (stereo not drawn) [I-515], the EC50 was in the range of 0.5 to 1 µM.
As to `Cc1ncsc1-c1ccc(CNC(=O)[C@@H]2C[C@@H](O)CN2C(=O)[C@@H](NCCOCCOCCOCCNCc2nn(C)cc2NC(=O)c2coc(-c3ccnc(NCC(F)(F)F)c3)n2)C(C)(C)C)cc1` [I-524], the EC50 is over 1 µM.
`CN(CC(=O)N(C)CC(=O)N(C)CC(=O)N(C)CCCc1ccc2c(c1)n(C)c(=O)n2C1CCC(=O)NC1=O)Cc1ccc(-n2cc(NC(=O)c3coc(-c4ccnc(NCC(F)(F)F)c4)n3)c(C(N)=O)n2)cc1` (stereo not drawn) [I-526]: the EC50 is over 1 µM.
The same measure, in the same setting: the value for `Cn1c(=O)n(C2CCC(=O)NC2=O)c2cccc(CCCOCCOCCNCc3ccc(-n4cc(NC(=O)c5cc(C#N)ccn5)c(C(N)=O)n4)cc3)c21` (stereo not drawn) [I-527] was over 1 µM; that for `Cn1c(=O)n(C2CCC(=O)NC2=O)c2cccc(CCCOCCOCCNCc3ccc(-n4cc5c(n4)CCCN5C(=O)c4coc(-c5ccnc(NCC(F)(F)F)c5)n4)cc3)c21` (stereo not drawn) [I-528] was over 1 µM; that for `Cn1c(=O)n(C2CCC(=O)NC2=O)c2ccc(CCCOCCNCc3ccc(-n4cc(NC(=O)c5coc(-c6ccnc(NCC7CC7)c6)n5)c(C(F)F)n4)cc3)cc21` (stereo not drawn) [I-531] was under 0.05 µM.
For the molecule `Cn1c(=O)n(C2CCC(=O)NC2=O)c2cccc(CCCOCCNCc3ccc(-n4cc(NC(=O)c5coc(-c6ccnc(NCC(F)(F)F)c6)n5)c(C(F)F)n4)cc3)c21` (stereo not drawn) [I-533], the EC50 lay in the range of 0.5 to 1 µM.
Same read-out and setting: the value for `N#Cc1nn(-c2ccc(CNCCOCCOCCCc3ccc4c(c3)oc(=O)n4C3CCC(=O)NC3=O)cc2)cc1NC(=O)c1coc(-c2ccnc(NCC3CC3)c2)n1` (stereo not drawn) [I-538] was over 1 µM; that for `Cn1c(=O)n(C2CCC(=O)NC2=O)c2ccc(CCCC(C)(O)CCCNCc3ccc(-n4cc(NC(=O)c5coc(-c6ccnc(NCC7CC7)c6)n5)c(C(F)F)n4)cc3)cc21` (stereo not drawn) [I-540] was under 0.05 µM.
On to `Cn1cc(NC(=O)c2coc(-c3ccnc(NCC(F)(F)F)c3)n2)c(-c2cncc(CNCCOCCOCCCc3cccc4c3n(C)c(=O)n4C3CCC(=O)NC3=O)c2)n1` (stereo not drawn) [I-541], for which the EC50 was over 1 µM.
For the molecule `CN1C(=O)CCC(n2c(=O)n(C)c3c(CCCOCCOCCNCc4ccc(-n5cc(NC(=O)c6coc(-c7ccnc(NCC(F)(F)F)c7)n6)c(C(N)=O)n5)cc4)cccc32)C1=O` (stereo not drawn) [I-544], the EC50 is over 1 µM.
On the same count and under the same terms, to `CN(C)CCNC(=O)c1nn(-c2ccc(CNCCCCOCCCCc3ccc4c(c3)n(C)c(=O)n4C3CCC(=O)NC3=O)cc2)cc1NC(=O)c1coc(-c2ccnc(NCC(F)(F)F)c2)n1` (stereo not drawn) [I-560] belongs over 1 µM; to `Cn1c(=O)n(C2CCC(=O)NC2=O)c2ccc(CNC(=O)OCCCNCc3ccc(-n4cc(NC(=O)c5coc(-c6ccnc(NCC(F)(F)F)c6)n5)c(C(N)=O)n4)cc3)cc21` (stereo not drawn) [I-563], over 1 µM; to `Cn1c(=O)n(C2CCC(=O)NC2=O)c2ccc(CCCN3CCO[C@H](CNCc4ccc(-n5cc(NC(=O)c6coc(-c7ccnc(NCC8CC8)c7)n6)c(C(F)F)n5)cc4)C3)cc21` (stereo partly drawn) [I-573], over 1 µM.
The same measure, in the same setting: to `Cn1c(=O)n(C2CCC(=O)NC2=O)c2ccc(CCCN3CCO[C@@H](CCNCc4ccc(-n5cc(NC(=O)c6coc(-c7ccnc(NCC(F)(F)F)c7)n6)c(C(N)=O)n5)cc4)C3)cc21` (stereo partly drawn) [I-575] belongs 0.1 to 0.5 µM.
Take `CN(CCCCOCCCCc1ccc2c(c1)n(C)c(=O)n2C1CCC(=O)NC1=O)Cc1ccc(-n2cc(NC(=O)c3coc(-c4ccnc(NCC(F)(F)F)c4)n3)c(C(N)=O)n2)cc1` (stereo not drawn) [I-578]: the EC50 was in the range of 0.5 to 1 µM.
On the same count and under the same terms, to `O=C1CCC(N2C[C@H](c3cccc(C#CCCOCCCNCc4ccc(-n5cc(NC(=O)c6coc(-c7ccnc(NCC8CC8)c7)n6)c(C(F)F)n5)cc4)c3)OC2=O)C(=O)N1` (stereo partly drawn) [I-581] belongs 0.1 to 0.5 µM.
The same measure, in the same setting: to `Cn1c(=O)n(C2CCC(=O)NC2=O)c2ccc(C#CCCN3CCC(CNCc4ccc(-n5cc(NC(=O)c6coc(-c7ccnc(NCC8CC8)c7)n6)c(C(F)F)n5)cc4)CC3)cc21` (stereo not drawn) [I-582] belongs under 0.05 µM; to `O=C1CCC(n2c3ccc(NCCOCCOCCNCc4ccc(-n5cc(NC(=O)c6coc(-c7ccnc(NCC8CC8)c7)n6)c(C(F)F)n5)cc4)cc3c3cccnc32)C(=O)N1` (stereo not drawn) [I-595], 0.05 to 0.1 µM; to `CN1C(=O)CCC(n2c(=O)n(C)c3c(CCCOCCOCCNCc4ccc(-n5cc(NC(=O)c6coc(-c7ccnc(NCC8CC8)c7)n6)c(C(F)F)n5)cc4)cccc32)C1=O` (stereo not drawn) [I-596], over 1 µM.
On the same count and under the same terms, to `COCCOCCNCc1ccc(-n2cc(NC(=O)c3coc(-c4ccnc(NCC(F)(F)F)c4)n3)c(C(N)=O)n2)cc1` [I-597] belongs 0.1 to 0.5 µM; to `CN(Cc1ccc(-n2cc(NC(=O)c3coc(-c4ccnc(NCC5CC5)c4)n3)c(C(F)F)n2)cc1)C[C@H]1CN(CCCc2ccc3c(c2)n(C)c(=O)n3C2CCC(=O)NC2=O)CCO1` (stereo partly drawn) [I-598], under 0.05 µM; to `Cn1c(=O)n(C2CCC(=O)NC2=O)c2ccc(CCCN3CCO[C@@H](CNCc4ccc(-n5cc(NC(=O)c6cnn7ccc(N8CCNCC8)nc67)c(C(F)F)n5)cc4)C3)cc21` (stereo partly drawn) [I-617], 0.5 to 1 µM.
Consider `Cn1c(=O)n(C2CCC(=O)NC2=O)c2cccc(C#CCOCCOCCn3cc4cc(NC(=O)c5cccc(C(F)(F)F)n5)c(C(C)(C)O)cc4n3)c21` (stereo not drawn) [I-688, N-[2-[2-[2-[3-[1-(2,6-dioxo-3-piperidyl)-3-methyl-2-oxo-benzimidazol-4-yl]prop-2-ynoxy]ethoxy]ethyl]-6-(1-hydroxy-1-methyl-ethyl)indazol-5-yl]-6-(trifluoromethyl)pyridine-2-carboxamide], for which the EC50 is over 1 µM.
Turning to `Cn1ncc2nc(Nc3cnn(CCOCCOCCOCCNc4cccc5c4C(=O)N(C4CCC(=O)NC4=O)C5=O)c3)nc(NC3CCC(N4CCOCC4)CC3)c21` (stereo not drawn) [I-691], the EC50 is over 1 µM.

The next test addresses T1, IRAK4 (Homo sapiens, UniProt Q9NWZ3).
T1 sequence (Q9NWZ3 1-460): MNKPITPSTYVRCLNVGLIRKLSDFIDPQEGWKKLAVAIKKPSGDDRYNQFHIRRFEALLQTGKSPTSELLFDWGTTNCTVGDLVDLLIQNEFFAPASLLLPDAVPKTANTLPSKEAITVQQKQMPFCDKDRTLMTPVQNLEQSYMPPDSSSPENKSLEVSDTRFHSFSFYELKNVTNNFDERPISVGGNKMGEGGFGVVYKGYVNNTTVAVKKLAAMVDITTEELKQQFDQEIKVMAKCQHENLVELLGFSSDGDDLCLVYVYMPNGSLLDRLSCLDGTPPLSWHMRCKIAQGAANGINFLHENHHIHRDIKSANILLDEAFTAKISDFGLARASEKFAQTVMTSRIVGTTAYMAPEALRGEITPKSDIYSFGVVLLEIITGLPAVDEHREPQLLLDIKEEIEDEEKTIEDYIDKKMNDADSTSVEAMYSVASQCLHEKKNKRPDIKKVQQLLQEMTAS
The test can be described thus: OCI-LY-10 MSD assay for IRAK4 DC50. Also on record: endogenous in cells; host or cells: OCI-LY10. Conditions: OCI-LY10 cells, 4 hr incubation, concentration required to degrade 50% of protein. In kind it is cell-based. Summed up:
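OCI-Ly10 cells were exposed to compound for 4 hr across a 3-fold, 8-point dilution series. Lysates were made in RIPA buffer, and IRAK4 remaining was measured by MSD sandwich immunoassay with anti-IRAK4 capture and detection antibodies. DC50 was taken from a four-parameter logistic fit.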
`Cn1c(=O)n([C@H]2CCC(=O)NC2=O)c2ccc(CCCCOCCCCNCc3ccc(-n4cc(NC(=O)c5coc(-c6ccnc(NCC7CC7)c6)n5)c(C(F)F)n4)cc3)cc21` (single isomer, unassigned) [I-699]: the DC50 lay within 0.1 to 0.5 µM.

Broadly, the EC50 is the concentration at which the effect is half-maximal. As usually defined, the DC50 is the concentration giving 50% degradation. A high value points to a less potent degrader.
